Assay results published in PubChem BioAssay AID1963827 (Molecular Pharmacology Branch, DTP, NCI, 2024).

System: 994946-033-R-J1-PDC complex spheroid viability
Assay: Anticancer human tumor 994946-033-R-J1-PDC patient-derived melanoma cell line growth inhibition [POLQ]
Details: for IC50: curve of first compound; for viability, T/C: stronger effect = lower value
Procedure, shortened: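 Patient-derived tumour cells were co-cultured with HUVEC and mesenchymal stem cells as multicellular spheroids at 37 °C. They were treated with POLQ inhibitors (novobiocin, ART-558, RP6685) alone or combined with other agents. Top concentrations were at or near clinical Cmax (otherwise 10 microM; SN-38 at 1 microM), decreasing in half-log steps.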

[1] = second compound 0.0316 µM, first compound 0.0316 µM
[2] = second compound 0.0316 µM, first compound 0.1 µM
[3] = second compound 0.0316 µM, first compound 0.316 µM
[4] = second compound 0.0316 µM, first compound 1 µM
[5] = second compound 0.0316 µM, first compound 3.16 µM
[6] = second compound 0.0316 µM, first compound 10 µM
[7] = second compound 0.1 µM, first compound 0.0316 µM
[8] = second compound 0.1 µM, first compound 0.1 µM
[9] = second compound 0.1 µM, first compound 0.316 µM
[10] = second compound 0.1 µM, first compound 1 µM
[11] = second compound 0.1 µM, first compound 3.16 µM
[12] = second compound 0.1 µM, first compound 10 µM
[13] = second compound 0.316 µM, first compound 0.0316 µM
[14] = second compound 0.316 µM, first compound 0.1 µM
[15] = second compound 0.316 µM, first compound 0.316 µM
[16] = second compound 0.316 µM, first compound 1 µM
[17] = second compound 0.316 µM, first compound 3.16 µM
[18] = second compound 0.316 µM, first compound 10 µM
[19] = second compound 1 µM, first compound 0.0316 µM
[20] = second compound 1 µM, first compound 0.1 µM
[21] = second compound 1 µM, first compound 0.316 µM
[22] = second compound 1 µM, first compound 1 µM
[23] = second compound 1 µM, first compound 3.16 µM
[24] = second compound 1 µM, first compound 10 µM
[25] = second compound 3.16 µM, first compound 0.0316 µM
[26] = second compound 3.16 µM, first compound 0.1 µM
[27] = second compound 3.16 µM, first compound 0.316 µM
[28] = second compound 3.16 µM, first compound 1 µM
[29] = second compound 3.16 µM, first compound 3.16 µM
[30] = second compound 3.16 µM, first compound 10 µM
[31] = second compound 10 µM, first compound 0.0316 µM
[32] = second compound 10 µM, first compound 0.1 µM
[33] = second compound 10 µM, first compound 0.316 µM
[34] = second compound 10 µM, first compound 1 µM
[35] = second compound 10 µM, first compound 3.16 µM
[36] = second compound 10 µM, first compound 10 µM
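Note: spheroids exposed to drugs for 7 days.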
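Throughout, for viability, T/C: 100% = DMSO vehicle treated spheroids.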

CC1COCCN1c1cc(C2(O)CC3CCC(C2)O3)c2cnn(-c3ccn[nH]3)c2n1 (centres undefined) + Nc1ccc(C#CCN(C(=O)Cc2ncc(C(F)(F)F)cc2C(F)(F)F)c2ccc(F)cc2)nn1
IC50 (second compound 0.0316 µM): 0.0513 µM | IC50 (second compound 0.1 µM): < 0.0316 µM | IC50 (second compound 0.316 µM): < 0.0316 µM | IC50 (second compound 1 µM): 0.0687 µM | IC50 (second compound 3.16 µM): 0.0386 µM | IC50 (second compound 10 µM): < 0.0316 µM | viability, T/C [1]: 59.9% | viability, T/C [2]: 36.3% | viability, T/C [3]: 23.4% | viability, T/C [4]: 18.8% | viability, T/C [5]: 13.9% | viability, T/C [6]: 6.85% | viability, T/C [7]: 43.3% | viability, T/C [8]: 27.6% | viability, T/C [9]: 24.2% | viability, T/C [10]: 19.9% | viability, T/C [11]: 10.6% | viability, T/C [12]: 9.96% | viability, T/C [13]: 48.5% | viability, T/C [14]: 24.9% | viability, T/C [15]: 26.3% | viability, T/C [16]: 19.6% | viability, T/C [17]: 17.6% | viability, T/C [18]: 9.49% | viability, T/C [19]: 74.5% | viability, T/C [20]: 31.9% | viability, T/C [21]: 33.7% | viability, T/C [22]: 10.7% | viability, T/C [23]: 13% | viability, T/C [24]: 9.29% | viability, T/C [25]: 55.6% | viability, T/C [26]: 22.8% | viability, T/C [27]: 19.8% | viability, T/C [28]: 21.4% | viability, T/C [29]: 17.8% | viability, T/C [30]: 8.76% | viability, T/C [31]: 38.3% | viability, T/C [32]: 54.1% | viability, T/C [33]: 24.6% | viability, T/C [34]: 23.6% | viability, T/C [35]: 14.6% | viability, T/C [36]: 5.15%

O=C(Nc1ccc(O)c(NS(=O)(=O)c2ccc(F)cc2)c1)c1ccc(-c2ccccc2)cc1 + Nc1ccc(C#CCN(C(=O)Cc2ncc(C(F)(F)F)cc2C(F)(F)F)c2ccc(F)cc2)nn1
IC50 (second compound 0.0316 µM): 7.1 µM | IC50 (second compound 0.1 µM): 4.79 µM | IC50 (second compound 0.316 µM): 7.55 µM | IC50 (second compound 1 µM): 8.49 µM | IC50 (second compound 3.16 µM): 9.09 µM | IC50 (second compound 10 µM): > 10 µM | viability, T/C [1]: 79.4% | viability, T/C [2]: 95.7% | viability, T/C [3]: 92.9% | viability, T/C [4]: 77.1% | viability, T/C [5]: 84.1% | viability, T/C [6]: 35.6% | viability, T/C [7]: 104% | viability, T/C [8]: 94.1% | viability, T/C [9]: 100% | viability, T/C [10]: 111% | viability, T/C [11]: 59.8% | viability, T/C [12]: 32.7% | viability, T/C [13]: 88.2% | viability, T/C [14]: 134% | viability, T/C [15]: 97.6% | viability, T/C [16]: 89.9% | viability, T/C [17]: 93.1% | viability, T/C [18]: 36.7% | viability, T/C [19]: 98.1% | viability, T/C [20]: 74.2% | viability, T/C [21]: 133% | viability, T/C [22]: 117% | viability, T/C [23]: 92.8% | viability, T/C [24]: 42.9% | viability, T/C [25]: 114% | viability, T/C [26]: 84.7% | viability, T/C [27]: 98.4% | viability, T/C [28]: 94.4% | viability, T/C [29]: 67.4% | viability, T/C [30]: 48.8% | viability, T/C [31]: 78.7% | viability, T/C [32]: 78.4% | viability, T/C [33]: 79% | viability, T/C [34]: 96.5% | viability, T/C [35]: 76% | viability, T/C [36]: 53.1%
